Where two headings read alike, the source gives them in different places.
Test system: HCV replicon
Assay: microbe, parasite or virus in culture
Type: cell-based
Details: read-out: Replicon IC5Os
[1] = Replicon IC50 values are determined by firefly luciferase signal, bicistronic replicon, 2 days

SMILES | IC50 [1] | IC50 (Hepatitis C virus, 48 h)
CCn1c(-c2cccc(NC(=O)OCCl)c2)c(C#N)c2ccc(OC)cc21 [Compound 355] | > 2000 nM | –
CCn1c(-c2cccc(NC(=O)OCC(C)(C)C)c2)c(C#N)c2ccc(OC)cc21 [Compound 356] | > 2000 nM | –
CCC(C)OC(=O)Nc1ccc(-c2c(C#N)c3ccc(OC)cc3n2CC)cc1 (stereo not shown) [Compound 357] | > 2000 nM | –
C#CCOC(=O)Nc1ccc(-c2c(C#N)c3ccc(OC)cc3n2CC)cc1 [Compound 358] | > 2000 nM | –
C=CC(C)OC(=O)Nc1ccc(-c2c(C#N)c3ccc(OC)cc3n2CC)cc1 (stereo not shown) [Compound 359] | > 2000 nM | –
C#CCCOC(=O)Nc1ccc(-c2c(C#N)c3ccc(OC)cc3n2CC)cc1 [Compound 360] | > 2000 nM | –
CCn1c(-c2ccc(S(=O)(=O)NC3CC3)cc2)c(C#N)c2ccc(OC)cc21 [Compound 363] | 500 to 2000 nM | –
CCn1c(-c2ccc(NS(C)(=O)=O)cc2)c(C#N)c2ccc(C(F)(F)F)cc21 [Compound 365] | – | < 500 nM
CCn1c(-c2ccc(NS(C)(=O)=O)cc2)c(C#N)c2ccccc21 [Compound 371] | > 2000 nM | –
CCOC(=O)Nc1ccc(-c2c(C#N)c3ccccc3n2CC)cc1 [Compound 372] | 500 to 2000 nM | –
CCn1c(-c2cccc(S(N)(=O)=O)c2)c(C#N)c2ccc(OC)cc21 [Compound 373] | > 2000 nM | –
CCCNS(=O)(=O)c1ccc(-c2c(C#N)c3ccc(OC)cc3n2CC)cc1 [Compound 374] | > 2000 nM | –
CCn1c(-c2cccc(N)c2)c(C#N)c2ccc(O)cc21 [Compound 376] | > 2000 nM | –
CCn1c(-c2ccc(C(=O)N3CCCNCC3)cc2)c(C#N)c2ccc(OC)cc21 [Compound 377] | > 2000 nM | –
CCn1c(-c2ccc(C(=O)Nc3ccc(Cl)c(Cl)c3)cc2)c(C#N)c2ccc(OC)cc21 [Compound 380] | > 2000 nM | –
CCn1c(-c2ccc(C(=O)Nc3ccc(C)cc3)cc2)c(C#N)c2ccc(OC)cc21 [Compound 381] | > 2000 nM | –
CCn1c(-c2ccc(C(=O)Nc3ccc(Cl)cc3)cc2)c(C#N)c2ccc(OC)cc21 [Compound 382] | 500 to 2000 nM | –
CCn1c(-c2cccc(NC(=O)C(C)C)c2)c(C#N)c2ccc(OC)cc21 [Compound 383] | > 2000 nM | –
CCn1c(-c2ccc(C(=O)NC(C)C)cc2)c(C#N)c2ccc(OC)cc21 [Compound 385] | 500 to 2000 nM | –
CCn1c(-c2ccc(C(=O)NC3CC3)cc2)c(C#N)c2ccc(OC)cc21 [Compound 386] | > 2000 nM | –
CCn1c(-c2ccc(C(=O)N3CCC3)cc2)c(C#N)c2ccc(OC)cc21 [Compound 387] | > 2000 nM | –

SMILES | IC50 [1] | IC50 (Hepatitis C virus, 48 h)
CCn1c(-c2ccc(C(=O)NCCO)cc2)c(C#N)c2ccc(OC)cc21 [Compound 388] | > 2000 nM | –
CCn1c(-c2ccc(C(=O)NCCCN3CCOCC3)cc2)c(C#N)c2ccc(OC)cc21 [Compound 389] | > 2000 nM | –
CCn1c(-c2ccc(C(=O)Nc3ccccc3)cc2)c(C#N)c2ccc(OC)cc21 [Compound 390] | > 2000 nM | –
CCn1c(-c2ccc(C(=O)Nc3ccc(OC)c(OC)c3)cc2)c(C#N)c2ccc(OC)cc21 [Compound 392] | > 2000 nM | –
CCn1c(-c2ccc(N)cc2)c(C#N)c2cc(Cl)ccc21 [Compound 393] | 500 to 2000 nM | –
CCn1c(-c2ccc(NS(C)(=O)=O)cc2)c(C#N)c2cc(Cl)ccc21 [Compound 394] | < 500 nM | –
CCn1c(-c2cccc(NC(=O)NCCCl)c2)c(C#N)c2ccc(OC)cc21 [Compound 395] | 500 to 2000 nM | –
CCCNC(=O)Nc1cccc(-c2c(C#N)c3ccc(OC)cc3n2CC)c1 [Compound 396] | – | < 500 nM
CCn1c(-c2cccc(NC(=O)NC(C)C)c2)c(C#N)c2ccc(OC)cc21 [Compound 397] | – | < 500 nM
CCCCNC(=O)Nc1cccc(-c2c(C#N)c3ccc(OC)cc3n2CC)c1 [Compound 398] | – | < 500 nM
C=CCNC(=O)Nc1cccc(-c2c(C#N)c3ccc(OC)cc3n2CC)c1 [Compound 399] | – | < 500 nM
CCn1c(-c2cccc(NC(=O)NCCCCl)c2)c(C#N)c2ccc(OC)cc21 [Compound 400] | 500 to 2000 nM | –
CCNC(=O)Nc1cccc(-c2c(C#N)c3ccc(OC)cc3n2CC)c1 [Compound 401] | – | < 500 nM
CCn1c(-c2cccc(NC(=O)NCCc3ccccc3)c2)c(C#N)c2ccc(OC)cc21 [Compound 402] | 500 to 2000 nM | –
CCn1c(-c2cccc(NC(=O)Nc3ccc(C(C)C)cc3)c2)c(C#N)c2ccc(OC)cc21 [Compound 403] | – | 500 to 2000 nM
CCn1c(-c2cccc(NC(=O)Nc3ccc(C)cc3)c2)c(C#N)c2ccc(OC)cc21 [Compound 404] | > 2000 nM | –
CCn1c(-c2cccc(NC(=O)Nc3ccccc3C)c2)c(C#N)c2ccc(OC)cc21 [Compound 405] | – | 500 to 2000 nM
CCn1c(-c2cccc(NC(=O)Nc3ccc(Oc4ccccc4)cc3)c2)c(C#N)c2ccc(OC)cc21 [Compound 406] | – | < 500 nM
CCOC(=O)c1ccc(NC(=O)Nc2cccc(-c3c(C#N)c4ccc(OC)cc4n3CC)c2)cc1 [Compound 407] | 500 to 2000 nM | –
COc1ccc2c(C#N)c(-c3ccc(NS(C)(=O)=O)cc3)n(CC(C)C)c2c1 [Compound 409] | 500 to 2000 nM | –
CCOc1ccc2cc(-c3ccc(NS(C)(=O)=O)cc3)n(CC)c2c1 [Compound 410] | 500 to 2000 nM | –

SMILES | IC50 [1] | IC50 (Hepatitis C virus, 48 h)
CCOc1ccc2cc(-c3ccc(NS(=O)(=O)CC)cc3)n(CC)c2c1 [Compound 411] | 500 to 2000 nM | –
CCCn1c(-c2ccc(NS(C)(=O)=O)cc2)cc2ccc(OCC)cc21 [Compound 412] | > 2000 nM | –
CCOc1ccc2c(C#N)c(-c3ccc(NS(=O)(=O)CC)cc3)n(C)c2c1 [Compound 414] | 500 to 2000 nM | –
CCCn1c(-c2ccc(NS(C)(=O)=O)cc2)c(C#N)c2ccc(OCC)cc21 [Compound 417] | < 500 nM | –
CCOc1ccc2c(C#N)c(-c3ccc(NS(C)(=O)=O)cc3)n(C(C)C)c2c1 [Compound 419] | 500 to 2000 nM | –
CCn1c(-c2ccc(NC(=O)CCl)cc2)c(C#N)c2ccc(C(F)(F)F)cc21 [Compound 421] | > 2000 nM | –
CCn1c(-c2ccc(NC(=O)c3ccccc3)cc2)c(C#N)c2ccc(C(F)(F)F)cc21 [Compound 423] | > 2000 nM | –
CCn1c(-c2ccc(NC(=O)N3CCOCC3)cc2)c(C#N)c2ccc(C(F)(F)F)cc21 [Compound 424] | > 2000 nM | –
CCn1c(-c2ccc(NC(=O)C3CC3)cc2)c(C#N)c2ccc(C(F)(F)F)cc21 [Compound 425] | 500 to 2000 nM | –
CCn1c(-c2ccc3ccccc3c2)c(C#N)c2ccc(OC)cc21 [Compound 426] | 500 to 2000 nM | –
CCn1c(-c2ccc3c(ccn3C)c2)c(C#N)c2ccc(OC)cc21 [Compound 427] | 500 to 2000 nM | –
CCn1c(-c2cccc(N)c2)c(C#N)c2cc(Cl)ccc21 [Compound 431] | > 2000 nM | –
CCNC(=O)c1ccc(-c2c(C#N)c3ccccc3n2CC)cc1 [Compound 432] | > 2000 nM | –
CCn1c(-c2ccc(C(=O)NC3CC3)cc2)c(C#N)c2ccccc21 [Compound 433] | > 2000 nM | –
CCOC(=O)Nc1cccc(-c2c(C#N)c3cc(Cl)ccc3n2CC)c1 [Compound 434] | > 2000 nM | –
CCn1c(-c2ccc(S(N)(=O)=O)cc2)c(C#N)c2cc(F)ccc21 [Compound 437] | > 2000 nM | –
CCn1c(-c2ccc(S(=O)(=O)NC)cc2)c(C#N)c2cc(F)ccc21 [Compound 438] | > 2000 nM | –
CCn1c(-c2ccc(NS(C)(=O)=O)cc2)c(C#N)c2cc(F)ccc21 [Compound 439] | 500 to 2000 nM | –
CCn1c(-c2ccc(NS(=O)(=O)CC)cc2)c(C#N)c2cc(F)ccc21 [Compound 440] | 500 to 2000 nM | –

Reference: patent US8013006B2
